From patent publication US9828338B2, “Carbamate derivatives of lactam based N-acylethanolamine acid amidase (NAAA) inhibitors” (The Regents of the University of California, priority 2013, dated 2017)
Entries after “also recorded” stand apart in the source; their conditions may differ.

Columns and labels:
mice [1] = experiment: Carrageenan-induced inflammation (paw edema, heat hyperalgesia); type: in vivo; conditions: compound 5 3-30 mg/kg p.o.
mice [2] = experiment: LPS-induced inflammation (lung); conditions: for neutrophil migration/infiltration into lung tissue: 6 h and 24 h
Procedure: Mice were anesthetized with ketamine and xylazine (100 and 10 mg/kg, respectively), and were subjected to intranasal instillation of LPS (1 μg/μL) or vehicle (saline 0.9%); the volume used was 1 μL/g body weight. In order to avoid drawing, the weight of each animal was divided by three; therefore each mouse received the respective volume of LPS or vehicle. Ex: animal 1 (24 g) received 3 times an intranasal instillation of 8 μL of LPS solution or vehicle.
The bronchoalveolar lavage and lung samples were collected 6 h or 24 h after the induction of inflammation.

mice [3] = experiment: Carrageenan-induced lung inflammation; type: in vivo; conditions: carrageenan 2%
Procedure: The chest was carefully opened and the pleural cavity was rinsed with 1 mL of saline solution containing heparin (5 U/mL). The exudate and washing solution were removed by aspiration and the total volume of the fluid was measured. Any exudate that was contaminated with blood was discarded. The amount of exudate was calculated by subtracting the volume of washing fluid injected from the total volume recovered.

Rat AC (r-AC) = molecular target: T1, Rat AC (r-AC) (Rattus norvegicus, UniProt Q6P7S1); experiment: Rat AC (r-AC) assay; type: biochemical
T1 construct: V5 (C); His (C); made in house; host or cells: HEK293 cells transfected with pEF6-rAC-V5/His, G418 selected; soluble lysosomal fraction
T1 sequence (Q6P7S1 21-394): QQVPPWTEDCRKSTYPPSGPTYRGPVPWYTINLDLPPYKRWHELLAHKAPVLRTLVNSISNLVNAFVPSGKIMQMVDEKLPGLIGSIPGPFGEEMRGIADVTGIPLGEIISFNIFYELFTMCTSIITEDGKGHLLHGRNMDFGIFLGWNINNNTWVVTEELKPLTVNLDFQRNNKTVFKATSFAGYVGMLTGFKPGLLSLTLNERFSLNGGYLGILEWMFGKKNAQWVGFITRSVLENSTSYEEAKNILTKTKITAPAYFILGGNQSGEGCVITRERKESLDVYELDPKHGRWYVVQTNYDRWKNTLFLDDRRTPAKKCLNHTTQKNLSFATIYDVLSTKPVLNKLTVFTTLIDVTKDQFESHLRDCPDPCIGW
Procedure: The selectivity of selected compounds versus Acid Ceramidase (AC) was determined.
Rat AC (r-AC) was cloned from a brain cDNA library using primers based on the sequence obtained from the National Center for Biotechnology Information (NCBI) database: 5′rAC (5′-[…]-3′) (SEQ ID NO:1) and 3′rAC (5′-[…]-3′) (SEQ ID NO:2). The PCR (High Fidelity PCR Master, Roche) product was subcloned into a pEF6-V5/His vector (Invitrogen) to construct a mammalian expression vector encoding V5/His-tagged rat AC. HEK293 cells were transfected with pEF6-rAC-V5/His using Super-Fect reagent (Qiagen) and screened with G418 (0.3 mg/mL). Cells were suspended in 20 mM Tris HCl (pH 7.5) containing 0.32M sucrose, sonicated and centrifuged at 800×g for 15 minutes at 4° C. The supernatants were centrifuged again at 12,000×g for 30 minutes at 4° C. The pellets were suspended in phosphate-buffered saline (PBS) and subjected to 2 freeze-thaw cycles at −80° C. The suspensions were centrifuged at 105,000×g for 1 hour at 4° C. The supernatants containing recombinant AC were kept at −80° C. until use. Protein concentration was measured using the bicinchoninic acid (BCA) assay (Pierce). Recombinant rat AC (50 μg) was preincubated with inhibitors (final DMSO concentration 1%) in assay buffer (100 mM sodium phosphate, 0.1% Nonidet P-40, 150 mM NaCl, 3 mM DTT, 100 mM sodium citrate, pH 4.5) for 30 minutes at 37° C. Reactions were started by the addition of 100 μM N-lauroyl ceramide (Nu-Chek Prep, Elysian, Minn.) and carried on for 30 minutes at 37° C. Reactions were stopped by addition of a mixture of chloroform/methanol (2:1, vol/vol) containing 1 nmol of heptadecanoic acid (HDA; NuChek Prep). The organic phases were collected, dried under N2, and analyzed by LC-MS in the negative-ion mode using […] (HDA) as internal standard (m/z=199 for lauric acid, m/z=269 for HDA). […]. The column temperature was 50° C. Electrospray ionization (ESI) was in the negative mode, capillary voltage as 4 kV, and fragmentor voltage was 100 V. N2 was used as drying gas at a flow rate of 13 L/min and a temperature of 350° C. Nebulizer pressure was set at 60 psi. We monitored [M-H]− in the selected-ion monitoring (SIM) mode using HDA as internal standard. Calibration curves were generated using commercial lauric acid (Nu-Chek Prep; m/z=199).

human NAAA = molecular target: T2, human NAAA (Homo sapiens, UniProt Q02083); experiment: Fluorogenic h-NAAA assay; type: biochemical
T2 construct: made in house; host or cells: HEK293 cells, stably transfected; soluble lysosomal fraction used as enzyme source
T2 sequence (Q02083 29-359): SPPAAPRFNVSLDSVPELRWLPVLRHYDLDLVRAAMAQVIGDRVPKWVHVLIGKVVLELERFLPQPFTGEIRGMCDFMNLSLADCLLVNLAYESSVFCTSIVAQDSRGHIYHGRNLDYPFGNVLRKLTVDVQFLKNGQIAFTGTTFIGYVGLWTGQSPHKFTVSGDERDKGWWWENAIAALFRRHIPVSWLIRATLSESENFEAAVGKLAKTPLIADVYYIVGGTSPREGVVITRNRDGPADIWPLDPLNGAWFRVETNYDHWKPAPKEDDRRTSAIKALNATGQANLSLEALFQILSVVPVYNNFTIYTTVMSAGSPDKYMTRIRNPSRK
Procedure: Hek293 cells stably transfected with the human NAAA coding sequence cloned from a human spleen cDNA library were used as enzyme source. Recombinant HEK-hNAAA pellets were resuspended in homogenizing buffer, and sonicated. Samples were centrifuged at 800×g for 15 min at 4° C. and the resultant supernatants were then ultracentrifuged at 12,000×g for 30 min at 4° C. The pellets were resuspended in PBS pH 7.4 on ice and subjected to a freeze/thaw cycle at −80° C. The suspension was finally centrifuged at 105,000×g for 1 h at 4° C. Protein concentration was measured and samples aliquoted and stored at −80° C. until use.
The assay was run in Optiplate 96-wells black plates, in a total reaction volume of 200 μL. NAAA protein preparation (4.0 μg) was pre-incubated for 10 min with various concentrations of test compounds or vehicle control (5% DMSO) in 100 mM citrate/phosphate buffer (pH 4.5) containing 3.0 mM DTT, 0.1% Triton X-100, 0.05% BSA, 150 mM NaCl. N-(4-methyl-2-oxo-chromen-7-yl)-hexadecanamide was used as a substrate (5.0 μM) and the reaction carried over for 30 min at 37° C. The samples were then read in a Perkin Elmer Envision plate reader using an excitation wavelength of 360 nm and emission 460 nm. IC50 values were calculated by non-linear regression analysis of log [concentration]/inhibition curves using GraphPad Prism 5 (GraphPad Software Inc., CA—USA) applying a standard slope curve fitting.

r-NAAA = molecular target: T3, r-NAAA (Rattus norvegicus, UniProt Q5KTC7); experiment: UPLC/MS r-NAAA assay; type: biochemical
T3 construct: Lysosomal NAAA protein preparation was obtained by homogenizing male Sprague-Dawley rat lungs; tissue Charles River (animals); host or cells: male Sprague-Dawley rat lung, soluble lysosomal fraction
T3 sequence (Q5KTC7 34-362): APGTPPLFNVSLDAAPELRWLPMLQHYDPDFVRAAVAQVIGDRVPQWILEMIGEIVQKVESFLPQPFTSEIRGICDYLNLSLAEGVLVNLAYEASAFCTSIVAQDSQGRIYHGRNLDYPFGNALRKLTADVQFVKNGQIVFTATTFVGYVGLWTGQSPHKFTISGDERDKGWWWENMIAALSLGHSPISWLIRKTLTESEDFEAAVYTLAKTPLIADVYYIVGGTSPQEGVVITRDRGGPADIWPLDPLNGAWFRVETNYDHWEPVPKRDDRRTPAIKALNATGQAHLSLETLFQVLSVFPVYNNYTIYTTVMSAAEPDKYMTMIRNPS

[4] = compound 5 30 mg/kg p.o., dexamethasone 0.5 mg/kg i.p.

Compound	heat hyperalgesia (mice [1])	paw edema (mice [1])	LPS induced increase of IL-6, TNF-α and MIP-2/CXCL2 in tissue and BAL (mice [2]; 30 mg/kg po, at 6 hr)	neutrophil migration/infiltration into lung tissue (mice [2]; LPS, 30 mg/kg po, listed as Compound 5, 30 mg/kg)	neutrophil migration/infiltration into lung tissue (mice [2]; LPS, 30 mg/kg po, listed as compound 5, 30 mg/kg)	production of cytokines/chemokines in BAL and lung tissue (mice [2]; LPS, compound 5 30 mg/kg p.o., 30 min)	TNF-alpha concentration in pulmonary exudate (mice [3]; [4])	number of leukocytes (neutrophils) in the pulmonary exudate (FACS) (mice [3]; [4])	myeloperoxidase (MPO) activity in lung tissue (mice [3]; compound 5 0.1-30 mg/kg p.o., dexamethasone 0.5 mg/kg i.p.)	increase of TNF-α in the pulmonary exudate (mice [3]; compound 5 0.1-30 mg/kg po)	IC50 (Rat AC (r-AC); read-out: r-AC UPLC/MS assay IC50) [µM]	IC50 (human NAAA) [µM]	IC50 (r-NAAA) [µM]	inhibition at 10 µM (Rat AC (r-AC); read-out: r-AC UPLC/MS assay % inhib.) [%]
O=C(N[C@H]1CNC1=O)OCCCCC1CCCCC1 [Example 5, 4-Cyclohexylbutyl-N-[(3S)-2-oxoazetidin-3-yl]-carbamate]	reduced; also recorded: markedly attenuated	reduced; also recorded: markedly attenuated	significantly reduced	prevented	prevents	prevents	normalizes	normalized	normalizes; also recorded: dose-dependently normalized	dose-dependently normalized	12.5	–	–	–
C[C@@H]1NC(=O)[C@H]1NC(=O)OCc1ccc(C2CCCCC2)cc1 [Example 74, (4-Cyclohexylphenyl)-methyl-N-[(2S,3S)-2-methyl-4-oxo-azetidin-3-yl]-carbamate]	–	–	–	–	–	–	–	–	–	–	–	0.107	0.046	20
